# According to patent US7772271B2 (priority 2004, dated 2010):
row,SMILES,melting point
1,CCNS(=O)(=O)Nc1ccc(-c2c(C#N)c3ccc(OC4CCOCC4)cc3n2C2CCC2)cc1 [Compound 2834],199 to 201 °C
2,CCn1c(-c2ccc(NC(=O)OC)cc2)c(C#N)c2ccc(OCCOC)cc21 [Compound 1367],191 to 194 °C
3,N#Cc1c(-c2ccc(NC(=O)NC3CCC3)cc2)n(C2CCC2)c2cc(N3CCOCC3)ccc12 [Compound 2863],172 °C (dec.)
4,CC(C)OC(=O)Nc1ccc(-c2c(C#N)c3ccc(OCCCNC4CC4)cc3n2C2CCC2)cc1 [Compound 1430],122 to 125 °C
5,CC(C)n1c(-c2ccc(NC(=O)O[C@H](C)C3CC3)cc2)c(C#N)c2ccc(OC3CCOCC3)cc21 [Compound 2741],208 to 210 °C
6,COCCOc1ccc2c(C#N)c(-c3ccc(NC(=O)OC4CCCC4)cc3)n(C3CCC3)c2c1 [Compound 1400],168 to 169 °C
7,N#Cc1c(-c2ccc(OC(=O)NC3CCCC3)cc2)n(CC2CC2)c2cc(OC3CCOCC3)ccc12 [Compound 2784],169 to 171 °C
8,N#Cc1c(-c2ccc(OC(=O)N3CCOCC3)cc2)n(C2CCC2)c2cc(OC3CCOCC3)ccc12 [Compound 2814],178 to 179 °C
9,C[C@@H](OC(=O)Nc1ccc(-c2c(C#N)c3ccc(OCCF)cc3n2C2CCC2)cc1)C(F)(F)F [Compound 2879],198 to 200 °C
10,CC(C)NC(=O)Nc1ccc(-c2c(C#N)c3cc(OC4COCOC4)ccc3n2C2CCC2)cc1 [Compound 2817],179 to 181 °C
11,COCCOc1ccc2c(C#N)c(-c3ccc(C(=O)N4CCCC4)cc3)n(C3CCC3)c2c1 [Compound 2756],162 to 164 °C
12,N#Cc1c(-c2ccc(NS(=O)(=O)C3CC3)cc2)n(C2CCC2)c2cc(N3CCOCC3)ccc12 [Compound 2802],222 to 224 °C
13,CC(C)NC(=O)Oc1ccc(-c2c(C#N)c3ccc(OC4CCOCC4)cc3n2C2CCC2)cc1 [Compound 2809],185 to 186 °C
14,CCn1c(-c2ccc(NC(=O)N(C)Cc3ccccc3)cc2)c(C#N)c2ccc(OCCOC)cc21 [Compound 1384],175 to 176 °C
15,COCCOc1ccc2c(C#N)c(-c3ccc(C(=O)N4CCOCC4)cc3)n(C3CCC3)c2c1 [Compound 2754],148 to 150 °C
16,CC(OC(=O)Nc1ccc(-c2c(C#N)c3ccc(OCCCCn4cncn4)cc3n2C2CCC2)cc1)c1ccc(F)cc1 (stereo not shown) [Compound 2644],108 to 110 °C
17,CC(C)OC(=O)Nc1ccc(-c2c(C#N)c3ccc(N4CCCCC4)cc3n2CC2CC2)cc1 [Compound 2892],145 to 148 °C
18,N#Cc1c(-c2ccc(NC(=O)OC(c3ccccc3)C(F)(F)F)cc2)n(C2CCC2)c2cc(OCCCCn3cncn3)ccc12 (stereo not shown) [Compound 2645],118 to 120 °C
19,CCn1c(-c2ccc(N3CCCS3(=O)=O)cc2)c(C#N)c2ccc(OCCOCCOC)cc21 [Compound 1333],160 to 164 °C
20,CCn1c(-c2ccc(NC(=O)OC(C)(C)C)cc2)c(C#N)c2ccc(N3CCN(CC4CC4)CC3)cc21 [Compound 1389],171 to 173 °C
21,N#Cc1c(-c2ccc(N3CCCS3(=O)=O)cc2)n(CC2CC2)c2cc(N3CCOCC3)ccc12 [Compound 2921],241 to 245 °C

# Further lines, results first:
row,melting point,SMILES
1,209 to 211 °C,N#C/N=C(/Nc1ccc(-c2c(C#N)c3ccc(OC4CCOCC4)cc3n2C2CCC2)cc1)NC1CCCCC1 [Compound 3176]
2,198 to 200 °C,CCCS(=O)(=O)Nc1ccc(-c2c(C#N)c3ccc(Oc4ncccc4F)cc3n2C2CC2)cc1 [Compound 2956]
3,218 to 224 °C,C[C@@H](OC(=O)Nc1ccc(-c2c(C#N)c3ccc(OCS(C)(=O)=O)cc3n2C2CCCC2)cc1)C1CC1 [Compound 3068]
4,244 to 250 °C,CCS(=O)(=O)Nc1ccc(-c2c(C#N)c3ccc(N4CCCC4)cc3n2C2CCC2)cc1 [Compound 2962]
5,224 to 229 °C,CC(C)NC(=O)Nc1c(F)cc(-c2c(C#N)c3ccc(OCCF)cc3n2C2CCC2)cc1F [Compound 3041]
6,128 to 131 °C,CCCS(=O)(=O)Nc1ccc(-c2c(C#N)c3ccc(Oc4ncccc4F)cc3n2CC2CC2)c(C)c1 [Compound 3030]
7,221 to 225 °C,CC(C)CS(=O)(=O)Nc1ccc(-c2c(C#N)c3ccc(OCS(C)(=O)=O)cc3n2C2CCC2)cc1 [Compound 2991]
8,215 to 217 °C,CCCS(=O)(=O)Nc1ccc(-c2c(C#N)c3ccc(Oc4ncccc4Cl)cc3n2C2CC2)cc1 [Compound 2943]
9,219 to 221 °C,CCCS(=O)(=O)Nc1ccc(-c2c(C#N)c3ccc(Oc4nc(C)ccc4C#N)cc3n2C2CCC2)cc1 [Compound 3309]
10,191 to 193 °C,CCCS(=O)(=O)Nc1ccc(-c2c(C#N)c3ccc(Oc4nccnc4C)cc3n2C2CC2)cc1 [Compound 2938]
11,223 to 225 °C,Cc1csc(Nc2ccc(-c3c(C#N)c4ccc(Oc5ncccn5)cc4n3C3CC3)cc2)n1 [Compound 3268]
12,227 to 230 °C,CCCS(=O)(=O)Nc1ccc(-c2c(C#N)c3ccc(Oc4ncccc4C#N)cc3n2C2CCC2)c(OC)c1 [Compound 3344]
13,203 to 208 °C,C[C@@H](OC(=O)Nc1ccc(-c2c(C#N)c3ccc(-c4cc(N(C)C)ccn4)cc3n2C2CCC2)cc1)C1CC1 [Compound 3259]
14,237 to 241 °C,CC(C)(C)OC(=O)Nc1ccc(-c2c(C#N)c3ccc(OCS(C)(=O)=O)cc3n2C2CCCC2)cc1 [Compound 3066]
15,189 to 191 °C,"CC(OC(=O)Nc1ccc(-c2c(C#N)c3ccc(OC4CCCO4)cc3n2C2CC2)cc1)C1CC1 (stereo not shown) [compound 1444, {4-[3-cyano-1-cyclopropyl-6-(tetrahydrofuran-2-yloxy)indol-2-yl]phenyl}carbamic acid 1-cyclopropylethyl ester]"
16,192 to 195 °C,CC(C)OC(=O)Nc1ccc(-c2c(C#N)c3ccc(N4CCOCC4)cc3n2C(C)C)cc1 [Compound 2934]
17,183 to 185 °C,C[C@@H](OC(=O)Nc1ccc(-c2c(C#N)c3ccc(Oc4ncccc4C#N)cc3n2C2CC2)cc1)C1CC1 [Compound 3263]
18,157 to 159 °C,CC(C)c1ccc(CNc2ccc(-c3c(C#N)c4ccc(OC5CCOCC5)cc4n3C3CCC3)cc2)cc1 [Compound 3119]
19,236 to 241 °C,CCOc1ccc2c(C#N)c(-c3ccc(NC(=O)OC4CCN(S(=O)(=O)C5CC5)CC4)cc3)n(C3CCC3)c2c1 [Compound 3071]
20,221 to 223 °C,CCn1c(-c2ccc(NC(=O)O[C@H](C)C(F)(F)F)cc2)c(C#N)c2ccc(Oc3ncccn3)cc21 [Compound 2929]
21,152 to 153 °C,CC(C)NC(=O)COc1ccc(-c2c(C#N)c3ccc(OC4CCOCC4)cc3n2C2CCC2)cc1 [Compound 3109]
22,223 °C (dec.),C[C@@H](OC(=O)Nc1ccc(-c2c(C#N)c3ccc(Oc4nccnc4C#N)cc3n2C2CC2)cc1)C1CC1 [Compound 3262]
23,250 to 251 °C,CCn1c(-c2ccc(N3CCCCCC3=O)cc2)c(C#N)c2ccc(OC(C)C)cc21 [Compound 3223]
24,243 to 246 °C,CCCS(=O)(=O)Nc1ccc(-c2c(C#N)c3ccc(Oc4nccnc4C#N)cc3n2CC2CC2)c(Cl)c1 [Compound 3307]
25,204 to 205 °C,CC(C)OC(=O)Nc1ccc(-c2c(C#N)c3cc(C(=O)N4CCCC4)ccc3n2C2CCC2)cc1 [Compound 3148]
